Laboratory results reported in ChEMBL document CHEMBL5678818, “Discovery of potent SOS1 inhibitors that block RAS activation via disruption of the RAS-SOS1 interaction” (Proc Natl Acad Sci U S A, 2019).

What was measured:
[1] = target: T1, Serine/threonine-protein kinase Nek5 (Homo sapiens) (UniProt Q6P3R8); assay: Inhibition of NEK5 (unknown origin) assessed as residual activity at 100 nM by KINOMEscan analysis relative to control
T1 sequence (whole entry): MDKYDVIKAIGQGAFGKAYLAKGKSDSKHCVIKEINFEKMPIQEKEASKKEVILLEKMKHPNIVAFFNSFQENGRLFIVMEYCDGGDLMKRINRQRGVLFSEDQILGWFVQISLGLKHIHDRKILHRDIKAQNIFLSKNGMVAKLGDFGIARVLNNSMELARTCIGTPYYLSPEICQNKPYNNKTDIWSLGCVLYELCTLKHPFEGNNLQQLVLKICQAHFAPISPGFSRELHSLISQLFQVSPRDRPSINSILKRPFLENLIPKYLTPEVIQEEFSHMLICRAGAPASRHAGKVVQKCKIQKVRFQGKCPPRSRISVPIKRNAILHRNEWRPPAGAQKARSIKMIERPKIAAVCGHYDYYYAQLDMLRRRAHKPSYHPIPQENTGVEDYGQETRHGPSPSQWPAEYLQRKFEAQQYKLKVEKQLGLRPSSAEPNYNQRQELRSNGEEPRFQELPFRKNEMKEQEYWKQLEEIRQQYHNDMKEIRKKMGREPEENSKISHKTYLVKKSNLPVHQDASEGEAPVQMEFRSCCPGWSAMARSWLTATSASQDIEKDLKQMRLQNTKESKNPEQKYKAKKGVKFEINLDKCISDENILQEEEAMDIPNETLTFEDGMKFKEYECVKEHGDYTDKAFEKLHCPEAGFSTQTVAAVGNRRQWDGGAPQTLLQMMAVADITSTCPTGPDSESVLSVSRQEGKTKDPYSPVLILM

[2] = target: Serine/threonine-protein kinase 16 (Homo sapiens) (UniProt O75716); assay: Inhibition of STK16 (unknown origin) assessed as residual activity at 100 nM by KINOMEscan analysis relative to control
[3] = test system: Epidermal growth factor receptor (Homo sapiens), P00533 [UNDEFINED MUTATION]; assay: Inhibition of EGFR L747-E749del/A750P mutant (unknown origin) assessed as residual activity at 100 nM by KINOMEscan analysis relative to control
[4] = target: Phosphatidylinositol 4-kinase beta (Homo sapiens) (UniProt Q9UBF8); assay: Inhibition of PIK4CB (unknown origin) assessed as residual activity at 100 nM by KINOMEscan analysis relative to control
[5] = test system: Receptor-type tyrosine-protein kinase FLT3 (Homo sapiens), P36888 [D835Y]; assay: Inhibition of FLT3 D835Y mutant (unknown origin) assessed as residual activity at 100 nM by KINOMEscan analysis relative to control
[6] = target: Cyclin-dependent kinase 18 (Homo sapiens) (UniProt Q07002); assay: Inhibition of PCTK3 (unknown origin) assessed as residual activity at 100 nM by KINOMEscan analysis relative to control
[7] = target: Ribosomal protein S6 kinase alpha-4 (Homo sapiens) (UniProt O75676); assay: Inhibition of N-terminal RPS6KA4 […] domain 1 (unknown origin) assessed as residual activity at 100 nM by KINOMEscan analysis relative to control
[8] = target: Ephrin type-A receptor 7 (Homo sapiens) (UniProt Q15375); assay: Inhibition of EPHA7 (unknown origin) assessed as residual activity at 100 nM by KINOMEscan analysis relative to control
[9] = test system: Epidermal growth factor receptor (Homo sapiens), P00533 [UNDEFINED MUTATION]; assay: Inhibition of EGFR L747-S752del/P753S mutant (unknown origin) assessed as residual activity at 100 nM by KINOMEscan analysis relative to control
[10] = target: T2, Serine/threonine-protein kinase 17A (Homo sapiens) (UniProt Q9UEE5); assay: Inhibition of DRAK1 (unknown origin) assessed as residual activity at 100 nM by KINOMEscan analysis relative to control
T2 sequence (whole entry): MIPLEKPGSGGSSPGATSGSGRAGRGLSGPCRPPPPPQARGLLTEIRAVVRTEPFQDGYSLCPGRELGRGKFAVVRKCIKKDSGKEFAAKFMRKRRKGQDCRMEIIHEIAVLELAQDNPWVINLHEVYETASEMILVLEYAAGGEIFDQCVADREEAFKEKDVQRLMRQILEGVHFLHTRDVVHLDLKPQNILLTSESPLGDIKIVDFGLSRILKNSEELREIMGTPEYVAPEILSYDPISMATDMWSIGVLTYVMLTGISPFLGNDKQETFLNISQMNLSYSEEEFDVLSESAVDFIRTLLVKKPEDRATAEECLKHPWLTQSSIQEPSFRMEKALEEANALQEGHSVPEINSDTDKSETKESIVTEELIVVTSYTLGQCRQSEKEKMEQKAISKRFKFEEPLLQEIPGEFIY

[11] = target: T3, Serine/threonine-protein kinase ULK3 (Homo sapiens) (UniProt Q6PHR2); assay: Inhibition of ULK3 (unknown origin) assessed as residual activity at 100 nM by KINOMEscan analysis relative to control
T3 sequence (whole entry): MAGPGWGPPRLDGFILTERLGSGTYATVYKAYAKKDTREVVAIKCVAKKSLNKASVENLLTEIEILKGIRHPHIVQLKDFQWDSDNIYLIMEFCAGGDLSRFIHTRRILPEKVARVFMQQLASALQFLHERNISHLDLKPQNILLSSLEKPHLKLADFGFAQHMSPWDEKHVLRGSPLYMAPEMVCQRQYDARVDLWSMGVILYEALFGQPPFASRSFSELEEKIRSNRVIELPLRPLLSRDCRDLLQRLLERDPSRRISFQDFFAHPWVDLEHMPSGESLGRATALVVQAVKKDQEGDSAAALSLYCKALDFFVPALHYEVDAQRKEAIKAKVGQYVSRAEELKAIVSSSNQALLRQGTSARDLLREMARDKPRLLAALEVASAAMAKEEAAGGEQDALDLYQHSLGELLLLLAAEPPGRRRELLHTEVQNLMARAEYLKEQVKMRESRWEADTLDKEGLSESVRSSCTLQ

[12] = test system: Tyrosine-protein kinase ABL1 (Homo sapiens), P00519 [T315I]; assay: Inhibition of nonphosphorylated ABL1 T315I mutant (unknown origin) assessed as residual activity at 100 nM by KINOMEscan analysis relative to control

Sequence of Epidermal growth factor receptor (Homo sapiens), P00533 [UNDEFINED MUTATION] (P00533 whole entry, looked up, stated change not applied): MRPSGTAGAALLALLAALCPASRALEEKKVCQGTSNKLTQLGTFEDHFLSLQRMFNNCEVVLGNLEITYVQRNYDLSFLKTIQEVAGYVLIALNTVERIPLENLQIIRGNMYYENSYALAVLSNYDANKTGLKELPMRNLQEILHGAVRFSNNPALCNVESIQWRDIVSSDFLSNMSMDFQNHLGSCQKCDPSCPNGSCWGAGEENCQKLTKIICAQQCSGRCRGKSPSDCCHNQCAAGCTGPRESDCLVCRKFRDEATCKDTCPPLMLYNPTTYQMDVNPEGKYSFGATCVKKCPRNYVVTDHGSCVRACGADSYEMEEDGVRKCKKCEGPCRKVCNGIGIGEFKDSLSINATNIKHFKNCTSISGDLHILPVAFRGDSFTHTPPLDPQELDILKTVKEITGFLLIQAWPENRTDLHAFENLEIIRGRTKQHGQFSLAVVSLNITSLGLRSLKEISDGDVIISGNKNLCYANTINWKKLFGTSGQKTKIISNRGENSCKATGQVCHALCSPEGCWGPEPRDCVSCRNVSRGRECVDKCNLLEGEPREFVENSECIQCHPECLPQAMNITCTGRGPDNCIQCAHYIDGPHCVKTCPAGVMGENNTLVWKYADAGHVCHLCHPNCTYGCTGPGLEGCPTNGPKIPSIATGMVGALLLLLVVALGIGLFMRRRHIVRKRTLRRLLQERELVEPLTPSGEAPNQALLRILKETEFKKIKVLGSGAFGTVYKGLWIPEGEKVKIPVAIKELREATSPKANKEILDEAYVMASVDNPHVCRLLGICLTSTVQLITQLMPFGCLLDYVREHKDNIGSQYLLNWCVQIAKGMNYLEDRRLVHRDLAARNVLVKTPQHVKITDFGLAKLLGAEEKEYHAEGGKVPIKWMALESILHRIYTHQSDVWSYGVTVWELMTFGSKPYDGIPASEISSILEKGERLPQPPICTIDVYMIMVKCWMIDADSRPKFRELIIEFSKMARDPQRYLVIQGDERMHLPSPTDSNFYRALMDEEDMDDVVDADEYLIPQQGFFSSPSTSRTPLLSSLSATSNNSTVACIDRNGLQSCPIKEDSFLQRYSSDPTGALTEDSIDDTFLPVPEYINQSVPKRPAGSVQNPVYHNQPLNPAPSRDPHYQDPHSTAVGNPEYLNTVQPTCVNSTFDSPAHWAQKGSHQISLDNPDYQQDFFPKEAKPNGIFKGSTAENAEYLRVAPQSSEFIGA
Sequence of Ephrin type-A receptor 7 (Homo sapiens) (Q15375 28-998 limits assumed): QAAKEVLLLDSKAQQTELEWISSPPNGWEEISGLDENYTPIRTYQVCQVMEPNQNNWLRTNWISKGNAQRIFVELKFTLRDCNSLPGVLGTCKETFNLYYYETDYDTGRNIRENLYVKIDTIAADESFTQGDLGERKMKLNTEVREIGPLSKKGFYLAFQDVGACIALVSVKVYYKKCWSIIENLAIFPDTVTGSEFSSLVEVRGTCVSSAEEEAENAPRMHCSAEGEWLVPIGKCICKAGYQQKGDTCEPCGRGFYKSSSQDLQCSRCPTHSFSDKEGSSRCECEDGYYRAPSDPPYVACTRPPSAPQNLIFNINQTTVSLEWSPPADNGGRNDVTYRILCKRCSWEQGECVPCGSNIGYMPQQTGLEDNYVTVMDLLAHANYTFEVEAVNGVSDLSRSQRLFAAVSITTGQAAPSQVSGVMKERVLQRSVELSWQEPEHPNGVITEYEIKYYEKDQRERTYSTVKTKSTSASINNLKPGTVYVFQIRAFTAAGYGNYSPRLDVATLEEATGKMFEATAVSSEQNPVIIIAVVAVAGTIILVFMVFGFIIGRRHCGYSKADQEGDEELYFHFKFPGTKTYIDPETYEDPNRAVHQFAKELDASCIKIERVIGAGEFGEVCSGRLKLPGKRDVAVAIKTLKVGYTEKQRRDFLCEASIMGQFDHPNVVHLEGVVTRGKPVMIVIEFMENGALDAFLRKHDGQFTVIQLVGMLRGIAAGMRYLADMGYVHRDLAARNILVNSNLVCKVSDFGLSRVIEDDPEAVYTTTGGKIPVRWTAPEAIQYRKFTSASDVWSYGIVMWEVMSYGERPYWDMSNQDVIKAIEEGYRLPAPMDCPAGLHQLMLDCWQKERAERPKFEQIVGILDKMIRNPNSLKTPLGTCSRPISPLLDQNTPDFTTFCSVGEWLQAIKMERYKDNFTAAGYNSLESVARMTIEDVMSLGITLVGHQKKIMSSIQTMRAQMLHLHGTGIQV
Sequence of Phosphatidylinositol 4-kinase beta (Homo sapiens) (Q9UBF8 2-816 limits assumed): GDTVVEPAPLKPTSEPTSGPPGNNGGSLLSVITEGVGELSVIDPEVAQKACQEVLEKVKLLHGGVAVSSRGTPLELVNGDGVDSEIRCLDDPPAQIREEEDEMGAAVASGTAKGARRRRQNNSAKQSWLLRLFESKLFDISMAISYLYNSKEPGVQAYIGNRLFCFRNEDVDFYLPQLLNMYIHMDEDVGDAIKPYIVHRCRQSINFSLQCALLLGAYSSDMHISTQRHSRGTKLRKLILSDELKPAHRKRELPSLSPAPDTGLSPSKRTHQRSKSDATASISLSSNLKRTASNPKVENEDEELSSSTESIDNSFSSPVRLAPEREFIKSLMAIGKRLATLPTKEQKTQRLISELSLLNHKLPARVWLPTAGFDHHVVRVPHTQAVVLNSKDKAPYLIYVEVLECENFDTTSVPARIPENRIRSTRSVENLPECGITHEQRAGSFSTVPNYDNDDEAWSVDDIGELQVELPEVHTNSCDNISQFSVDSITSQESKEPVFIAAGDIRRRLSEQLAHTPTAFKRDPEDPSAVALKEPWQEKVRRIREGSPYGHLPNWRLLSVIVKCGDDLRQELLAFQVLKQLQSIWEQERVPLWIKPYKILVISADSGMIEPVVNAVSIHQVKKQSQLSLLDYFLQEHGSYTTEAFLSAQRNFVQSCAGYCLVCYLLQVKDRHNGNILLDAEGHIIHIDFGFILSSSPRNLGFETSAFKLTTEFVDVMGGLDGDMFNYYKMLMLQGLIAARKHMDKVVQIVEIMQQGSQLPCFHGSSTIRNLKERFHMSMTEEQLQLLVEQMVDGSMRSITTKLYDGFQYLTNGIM
Sequence of Ribosomal protein S6 kinase alpha-4 (Homo sapiens) (O75676 whole entry, looked up): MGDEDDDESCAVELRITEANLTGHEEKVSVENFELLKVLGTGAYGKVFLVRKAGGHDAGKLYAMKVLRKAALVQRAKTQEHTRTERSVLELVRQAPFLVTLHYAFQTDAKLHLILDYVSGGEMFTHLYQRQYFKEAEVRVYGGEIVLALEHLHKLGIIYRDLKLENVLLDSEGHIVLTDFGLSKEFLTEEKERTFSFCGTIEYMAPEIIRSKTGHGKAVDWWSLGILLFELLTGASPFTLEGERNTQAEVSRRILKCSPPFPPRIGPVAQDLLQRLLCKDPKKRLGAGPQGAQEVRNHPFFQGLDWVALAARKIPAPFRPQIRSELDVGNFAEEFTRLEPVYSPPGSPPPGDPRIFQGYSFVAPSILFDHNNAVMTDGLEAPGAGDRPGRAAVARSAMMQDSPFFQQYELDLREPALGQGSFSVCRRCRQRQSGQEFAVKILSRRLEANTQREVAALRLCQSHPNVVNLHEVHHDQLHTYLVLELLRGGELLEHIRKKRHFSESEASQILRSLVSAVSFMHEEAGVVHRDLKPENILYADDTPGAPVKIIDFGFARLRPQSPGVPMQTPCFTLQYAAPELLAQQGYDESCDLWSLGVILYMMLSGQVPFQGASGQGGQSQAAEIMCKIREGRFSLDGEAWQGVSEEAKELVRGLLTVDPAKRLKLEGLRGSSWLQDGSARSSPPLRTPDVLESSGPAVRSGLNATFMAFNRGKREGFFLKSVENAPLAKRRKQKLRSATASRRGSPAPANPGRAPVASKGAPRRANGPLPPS
Sequence of Cyclin-dependent kinase 18 (Homo sapiens) (Q07002 whole entry): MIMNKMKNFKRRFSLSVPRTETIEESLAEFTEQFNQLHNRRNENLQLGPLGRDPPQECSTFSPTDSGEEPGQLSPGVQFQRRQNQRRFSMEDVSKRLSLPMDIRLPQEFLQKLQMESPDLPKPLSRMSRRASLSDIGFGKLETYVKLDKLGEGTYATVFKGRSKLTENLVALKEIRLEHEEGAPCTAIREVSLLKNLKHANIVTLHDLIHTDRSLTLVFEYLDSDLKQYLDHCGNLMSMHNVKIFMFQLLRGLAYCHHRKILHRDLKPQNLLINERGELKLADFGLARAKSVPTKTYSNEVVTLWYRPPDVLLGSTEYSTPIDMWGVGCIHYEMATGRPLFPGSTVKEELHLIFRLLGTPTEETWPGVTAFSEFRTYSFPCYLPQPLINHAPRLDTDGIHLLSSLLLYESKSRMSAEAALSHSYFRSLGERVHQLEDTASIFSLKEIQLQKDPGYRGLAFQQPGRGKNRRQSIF
Sequence of Serine/threonine-protein kinase 16 (Homo sapiens) (O75716 whole entry): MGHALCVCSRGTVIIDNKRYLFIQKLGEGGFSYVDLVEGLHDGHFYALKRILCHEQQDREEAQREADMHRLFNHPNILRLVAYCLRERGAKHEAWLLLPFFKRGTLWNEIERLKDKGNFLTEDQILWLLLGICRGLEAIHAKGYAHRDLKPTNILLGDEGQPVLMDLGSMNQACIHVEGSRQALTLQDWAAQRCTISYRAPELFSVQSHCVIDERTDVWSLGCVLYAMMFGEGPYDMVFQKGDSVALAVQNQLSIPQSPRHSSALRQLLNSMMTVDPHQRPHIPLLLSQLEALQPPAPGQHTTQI

`COc1cc2ncnc(N[C@H](C)c3cccc4ccccc34)c2cc1OC` was tested, and the Activity [1] was 31%, the Activity [2] was 93% and the Activity [3] was 92%. The Activity [4] was 83%, the Activity [5] was 98% and the Activity [6] was 76%. For the same molecule, the Activity [7] was 100%, the Activity [8] was 78% and the Activity [9] was 90%. The Activity [10] was 100%, the Activity [11] was 89% and the Activity [12] was 100%.
